Results reported in US11166972B2, “Compositions comprising nicotinamide riboside and a urolithin” (Amazentis SA, priority 2015, dated 2021).

Tested on: mitochondrial respiratory subunits proteins in C2C12 myoblasts
Experiment: Western blot of mitochondrial respiratory subunits proteins in C2C12 myoblasts (Example 6)
Format: cell-based
Details: 48 hours
Procedure: C2C12 myoblasts were cultured in Dulbecco's modified Eagle's medium (DMEM) including 4.5 g/L glucose, 10% fetal calf serum, and 50 μg/mL gentamicin. Urolithin A (UA) was dissolved in DMSO in a stock solution of 50 mM. Nicotinamide riboside (NR) in the form of the triflate salt was dissolved in double-distilled water in a stock solution of 1 M. One hundred thousand cells were plated at time 0 hours in 6-wells plates. A total of 3 wells was used per condition (n=3 per group). Cells were treated in a volume of 2 ml for a period of 48 hours at final concentrations of (a) DMSO 0.1%, (b) 25 μM UA, (c) 0.1 mM NR, (d) 1 mM NR, (e) 25 μM UA+0.1 mM NR and (f) 25 μM UA+1 mM NR. At the end of the treatment, cells were lysed with cell lysis buffer (#9803, Cell signalling) containing protease (cOmplete™, Roche) and phosphatase inhibitor (PhosSTOP™, Roche) and applied to Invitrogen NuPage® Novex® Gel System (Bis-Tris Protein Gels −4-12%, Thermo fisher Scientific). Protein levels were examined for mitochondrial respiratory subunits, including mitochondrially encoded cytochrome c oxidase I (MTCO1), succinate dehydrogenase complex flavoprotein subunit A (SDHA) and B (SDHB), ubiquinol-cytochrome c reductase core protein II (UQCRC2) and ATP synthase, H+ transporting, mitochondrial F1 complex, alpha subunit 1 (ATP5A). The housekeeping protein tubulin-α was measured as a loading control. Detection of the proteins was performed using an Azure c300 (Azure biosystem) (FIG. 1B). Western Blot images were representative of the three biological replicates. Experiments were repeated at least 2 times. Bands were quantified using ImageJ software. The heatmap of the band intensities was drawn using GEN-E (Broad Institute) conditional formatting. Control DMSO values were set to one (FIG. 1A).

| Molecule | ATP5A protein level, change vs DMSO control (UA 25 μM alone) | MT-CO1 protein level, change vs DMSO control (UA 25 μM alone, increase) | SDHA protein level, change vs DMSO control (UA 25 μM alone, increase) | SDHB protein level, change vs DMSO control (UA 25 μM alone, increase) | UQCRC2 protein level, change vs DMSO control (UA 25 μM alone, increase) | ATP5A protein level, change vs DMSO control (NR 0.1 mM) | SDHB protein level, change vs DMSO control (NR 0.1 mM) | MT-CO1 protein level, change vs DMSO control (NR 0.1 mM, decrease (printed −≈10%)) | SDHA protein level, change vs DMSO control (NR 0.1 mM, increase) | UQCRC2 protein level, change vs DMSO control (NR 0.1 mM, increase (+≈)) | SDHB protein level, change vs DMSO control (NR 1 mM) | ATP5A protein level, decrease vs DMSO control (NR 1 mM, decrease) | MT-CO1 protein level, change vs DMSO control (NR 1 mM, decrease (printed −≈10%)) | SDHA protein level, change vs DMSO control (NR 1 mM, increase) | UQCRC2 protein level, change vs DMSO control (NR 1 mM, increase (+≈)) |
| --- | --- | --- | --- | --- | --- | --- | --- | --- | --- | --- | --- | --- | --- | --- | --- |
| O=c1oc2cc(O)ccc2c2ccc(O)cc12 [UA, Urolithin A] | no change | +14% | +54% | +10% | +26% | – | – | – | – | – | – | – | – | – | – |
| Nicotinamide riboside [NR] | – | – | – | – | – | no effect | no change | ≈ 10% | ≈ 100% | ≈ 10% | no change | 20% | ≈ 10% | ≈ 100% | ≈ 10% |
